Assay results reported in ChEMBL document CHEMBL1255206, “Design and synthesis of a new class of malonyl-CoA decarboxylase inhibitors with anti-obesity and anti-diabetic activities” (Bioorg Med Chem Lett, 2010).
Each block holds one molecule with its values, some of them ahead of it.

Key:
[1] = molecular target: T1, Malonyl-CoA decarboxylase, mitochondrial (Homo sapiens, UniProt O95822); experiment: Inhibition of human MCD
T1 sequence (O95822 whole entry): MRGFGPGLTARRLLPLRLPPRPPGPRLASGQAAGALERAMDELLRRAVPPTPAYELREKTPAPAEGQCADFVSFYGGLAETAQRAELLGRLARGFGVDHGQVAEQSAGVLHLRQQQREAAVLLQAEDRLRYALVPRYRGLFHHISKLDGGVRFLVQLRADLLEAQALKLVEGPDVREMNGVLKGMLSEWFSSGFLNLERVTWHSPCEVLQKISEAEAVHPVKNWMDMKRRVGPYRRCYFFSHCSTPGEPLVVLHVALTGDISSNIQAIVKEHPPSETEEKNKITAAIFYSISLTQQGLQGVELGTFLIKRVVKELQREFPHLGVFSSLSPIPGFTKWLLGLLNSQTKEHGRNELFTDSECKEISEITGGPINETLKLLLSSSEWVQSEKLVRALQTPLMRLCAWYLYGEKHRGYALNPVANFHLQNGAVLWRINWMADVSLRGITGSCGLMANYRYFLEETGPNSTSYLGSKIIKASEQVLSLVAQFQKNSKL

[2] = molecular target: T2, Malonyl-CoA decarboxylase, mitochondrial (Mus musculus, UniProt Q99J39); experiment: Inhibition of MCD in mouse hepatocytes by whole cell assay; format: cell-based, Hepatocyte
T2 sequence (Q99J39 whole entry): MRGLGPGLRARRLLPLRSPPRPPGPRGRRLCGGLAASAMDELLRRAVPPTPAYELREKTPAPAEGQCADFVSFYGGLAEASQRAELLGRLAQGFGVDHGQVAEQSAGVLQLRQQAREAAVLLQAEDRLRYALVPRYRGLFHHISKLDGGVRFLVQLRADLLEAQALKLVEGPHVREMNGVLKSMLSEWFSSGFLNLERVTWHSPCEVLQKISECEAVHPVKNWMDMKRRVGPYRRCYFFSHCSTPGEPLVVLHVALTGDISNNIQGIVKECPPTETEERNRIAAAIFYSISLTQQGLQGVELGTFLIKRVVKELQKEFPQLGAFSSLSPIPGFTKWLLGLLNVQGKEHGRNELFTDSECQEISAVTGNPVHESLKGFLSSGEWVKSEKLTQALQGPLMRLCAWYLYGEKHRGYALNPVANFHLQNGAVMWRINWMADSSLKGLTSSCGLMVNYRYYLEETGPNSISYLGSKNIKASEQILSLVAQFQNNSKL

Mus musculus [3] = experiment: Antiobesity activity in C57B6N mouse assessed as change in chronic food intake at 100 mg/kg, po; format: functional
Mus musculus [4] = experiment: Antiobesity activity in C57B6N mouse assessed as change in chronic food intake at 30 mg/kg, po; format: functional
Mus musculus [5] = experiment: Antiobesity activity in C57B6N mouse assessed as change in body weight at 100 mg/kg, po; format: functional
Mus musculus [6] = experiment: Antiobesity activity in C57B6N mouse assessed as change in body weight at 30 mg/kg, po; format: functional
Mus musculus [7] = experiment: Antidiabetic activity in C57B6N mouse assessed as decrease in beta-hydroxybutyrate at 30 mg/kg, po; format: functional; set-up: scale not given: the % may be the effect or the level left
Mus musculus [8] = experiment: Antiobesity activity in C57B6N mouse assessed as change in hyphalamic malonyl-coA level at 30 mg/kg, po; format: functional
Mus musculus [9] = experiment: Antidiabetic activity in C57B6N mouse assessed as blood glucose correction at 30 mg/kg, po; format: functional
Mus musculus [10] = experiment: Antiobesity activity in C57B6N mouse assessed as change in hyphalamic malonyl-coA level at 100 mg/kg, po; format: functional
Mus musculus [11] = experiment: Antidiabetic activity in C57B6N mouse assessed as decrease in beta-hydroxybutyrate at 10 mg/kg, po; format: functional; set-up: scale not given: the % may be the effect or the level left
Mus musculus [12] = experiment: Antidiabetic activity in C57B6N mouse assessed as blood glucose correction at 3 mg/kg, po; format: functional
Mus musculus [13] = experiment: Antidiabetic activity in C57B6N mouse assessed as decrease in beta-hydroxybutyrate at 3 mg/kg, po; format: functional; set-up: scale not given: the % may be the effect or the level left
Mus musculus [14] = experiment: Antidiabetic activity in C57B6N mouse assessed as blood glucose correction at 10 mg/kg, po; format: functional

IC50 [1]: 13.3 nM
SMILES: Cc1cc(C(O)(C(F)(F)F)C(F)(F)F)ccc1C(Cc1cc[n+]([O-])cc1)c1ccc(OC(F)F)c(OC(F)F)c1 (configuration not stated)

EC50 [2]: > 20000 nM
SMILES: OC(c1cnc(C2CCN(c3ccc(F)cc3)CC2)s1)(C(F)(F)F)C(F)(F)F

EC50 [2]: 2000 nM
SMILES: NC(=O)c1cccc(N2CCC(c3ncc(C(O)(C(F)(F)F)C(F)(F)F)s3)CC2)c1

EC50 [2]: 230 nM
SMILES: O=C(O)c1cccc(C2CCN(c3ncc(C(O)(C(F)(F)F)C(F)(F)F)s3)CC2)c1

EC50 [2]: 950 nM
SMILES: NC(=O)c1cccc(C2CCN(c3ncc(C(O)(C(F)(F)F)C(F)(F)F)s3)CC2)c1

EC50 [2]: 1100 nM
SMILES: NC(=O)C1(c2ccccc2)CCN(c2ncc(C(O)(C(F)(F)F)C(F)(F)F)s2)CC1
Activity (Mus musculus [3]): -5.7% | Activity (Mus musculus [4]): -2.4% | Activity (Mus musculus [5]): 14.3% | Activity (Mus musculus [6]): -5.5% | Activity (Mus musculus [7]): 60% | Activity (Mus musculus [8]): 29% | Activity (Mus musculus [9]): 41% | Activity (Mus musculus [10]): 70%

EC50 [2]: 640 nM
SMILES: CNC(=O)C1(c2ccccc2)CCN(c2ncc(C(O)(C(F)(F)F)C(F)(F)F)s2)CC1

EC50 [2]: > 20000 nM
SMILES: OC(c1cnc(N2CCN(c3ccc(F)c(F)c3)CC2)s1)(C(F)(F)F)C(F)(F)F

EC50 [2]: 150 nM
SMILES: NC(=O)C1(c2cccc(C(=O)O)c2)CCN(c2ncc(C(O)(C(F)(F)F)C(F)(F)F)s2)CC1

EC50 [2]: 500 nM
SMILES: CS(=O)(=O)NC(=O)C1(c2ccccc2)CCN(c2ncc(C(O)(C(F)(F)F)C(F)(F)F)s2)CC1
Activity (Mus musculus [11]): 53% | Activity (Mus musculus [12]): 28% | Activity (Mus musculus [7]): 60% | Activity (Mus musculus [13]): -12% | Activity (Mus musculus [14]): 53% | Activity (Mus musculus [9]): 48%

EC50 [2]: 1400 nM
SMILES: NC(=O)c1cccc(N2CCN(c3ncc(C(O)(C(F)(F)F)C(F)(F)F)s3)CC2)c1
Activity (Mus musculus [3]): 0.8% | Activity (Mus musculus [4]): 0.8% | Activity (Mus musculus [5]): -2.2% | Activity (Mus musculus [6]): -3.3% | Activity (Mus musculus [7]): 78% | Activity (Mus musculus [8]): 50% | Activity (Mus musculus [9]): 32% | Activity (Mus musculus [10]): 36%

EC50 [2]: 630 nM
SMILES: CNC(=O)c1cccc(N2CCN(c3ncc(C(O)(C(F)(F)F)C(F)(F)F)s3)CC2)c1
Activity (Mus musculus [3]): -12.4% | Activity (Mus musculus [4]): -1.3% | Activity (Mus musculus [5]): 20% | Activity (Mus musculus [6]): -2.1% | Activity (Mus musculus [7]): 65% | Activity (Mus musculus [8]): 65% | Activity (Mus musculus [9]): 30% | Activity (Mus musculus [10]): 186%
